Reference: US20260315434A1, “USE OF GUAIACOL SESQUITERPENE LACTONE DERIVATIVES” (NANJING UNIVERSITY OF CHINESE MEDICINE, priority 2023, published 2026)
Converted amounts (≈) assume the structure as drawn.

How the values were obtained:
[1] = tested on: mouse ear atopic dermatitis; test: MC903-induced atopic dermatitis of the ear, ointment: ear thickness, dermatitis score, lesions; type: in vivo; conditions: for inhibition rate of ear thickness increase: final day
Procedure: (1) Preparation of Oil Phase: Weigh white petrolatum, light liquid paraffin, glyceryl monostearate, ethylparaben, and cetyl alcohol. Heat to 65° C. while stirring until dissolved. Slowly add the dissolved active pharmaceutical ingredient (API) while continuing to stir until uniformly mixed. Set aside.
(2) Aqueous Phase Preparation: Weigh purified water and Tween 80, heat to 70° C., stir to dissolve, and set aside;
(3) Emulsification: Slowly add the aqueous phase to the oil phase while maintaining 65° C., homogenize, and continue stirring for 30 min;
(4) Cooling: Stop heating, continue stirring, gradually reduce to room temperature, cool to form an ointment, and fill containers.
(§1) Dissolve these substances in a small amount of propylene glycol, then place the resulting solution into the aforementioned pre-cooled blank ointment base. Finally, add water to make the total mass up to 10 g, and grind the mixture thoroughly in a mortar.
(§2) Except for the Normal group, all other groups underwent AD modeling: 20 μL of MC903 solution (also known as calcipotriol, purchased from Shanghai Yuanye Biotechnology Co., Ltd., used for inducing atopic models) was applied to each mouse's ears once daily for 14 consecutive days to induce the atopic dermatitis model. […] Measure ear thickness changes every 2 days using an electronic caliper before modeling and after treatment initiation.
(§3) Skin Lesion Severity Score: Daily skin lesion severity was assessed in mice using the following criteria, primarily encompassing four symptoms: 1) erythema/hemorrhage; 2) dryness; 3) desquamation/erosion; 4) edema. Each symptom was scored from 0 to 3 based on lesion severity: no symptoms=0 points, mild=1 point, moderate=2 points, severe=3 points. […] Higher scores indicated more severe lesions, with a maximum score of 12. Statistical analysis was performed on the data.

[2] = tested on: inflammatory markers in the ears of AD mice; test: MC903-induced atopic dermatitis of the ear, ointment: mRNA of inflammatory markers; type: in vivo, mouse
Procedure: as §1, §2

[3] = tested on: dorsal atopic dermatitis; test: MC903-induced atopic dermatitis of the dorsum, ointment: skin thickness, dermatitis score, lesions; type: in vivo, mouse; conditions: for inhibition rate of dorsal skin thickness increase: final day
Procedure: as §1
Except for the Normal group, all other groups underwent AD modeling: 48 hours prior to the experiment, hair on the dorsal neck region was meticulously removed using clippers and depilatory cream. Following modeling initiation, 20 μL of MC903 solution was applied once daily to the dorsal neck region for 14 consecutive days to induce the AD model. […] Model and control group mice received daily application of blank ointment. Twenty-four hours after completing the 14-day modeling period, photographs of skin lesions were taken, and skin lesion and blood samples were collected.
as §3

[4] = tested on: T cells / MDSCs; test: Promotion of T cell proliferation in a co-culture model of MDSCs and T cells; type: cell-based, mouse; conditions: for activation at 1 µM: Mus musculus, T-cell, 12 h, read-out: T-cell proliferation rate (%), 1 μM, MDSCs treated 12 hours, co-culture of MDSCs and T cells, compared to the control group
How it was run: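 Bone-marrow MDSCs, after compound treatment, were co-cultured 48 h at 1:1 with CFDA-SE-labelled (10 μM solution), activated splenic T cells. Proliferation of CD3+ T cells was read by flow cytometry.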

[5] = tested on: MDSCs; test: Inhibition of MDSC chemotaxis (Transwell, tumor-conditioned medium); type: cell-based, mouse; design: inhibition of MDSC chemotaxis compared to Arg: dose or concentration left out as unconfirmed
Procedure: Hepa1-6 mouse hepatocellular carcinoma cells were uniformly seeded into 6-well plates. After cells reached confluence, supernatant was aspirated, and 1-1.5 mL fresh medium was added to each well. Following 24 h culture, supernatant was collected, centrifuged at 1600 rpm for 5 min, aspirated, and filtered through a 0.22 μm membrane to obtain tumor-conditioned medium for subsequent use. […] Under sterile conditions, remove the tibia, cut both ends of the bone, and aspirate the bone marrow into a 1 mL syringe. Repeat flushing into a 15 mL centrifuge tube. Centrifuge at 1600 rpm for 5 min to collect bone marrow cells. Wash twice with 1×PBS. […] Count cells, adjust density to 1×10^6 cells/mL, and uniformly seed into 24-well plates at 300 μL per well. […] Centrifuge at 1600 rpm for 5 min, remove supernatant, resuspend cells in 300 μL fresh medium, and place into Transwell chambers. […] Co-culture for 24 h.

[6] = tested on: CCR2 mRNA; test: Inhibition of CCR2 mRNA level in MDSCs; type: cell-based; conditions: Mus musculus, 2 h, read-out: Suppression Rate (inhibition of CCR2 mRNA levels)
Procedure: Under sterile conditions, the tibia was removed, both ends of the bone were cut, and bone marrow was repeatedly flushed into a 15 mL centrifuge tube using a 1 mL syringe filled with culture medium. Centrifuge at 1600 rpm for 5 min to collect bone marrow cells. […] Count cells and adjust density to 1×10^6 cells/mL in complete medium. Seed cells uniformly into 6-well plates at 2 mL per well. […] After incubation, collect cells into centrifuge tubes, centrifuge at 1600 rpm for 5 min, wash once with 1×PBS, and add 500 μL RNA extraction reagent to each tube. After centrifugation to obtain the pellet, add 20 μL DEPC-treated water to each tube to dissolve the pellet. Determine RNA concentration and reverse transcribe to cDNA. Add the cDNA, primers, and […] to a 96-well plate. Centrifuge at 4000 rpm for 5 min, then place in a PCR instrument for detection.

[7] = Water solubility testing of compounds (HPLC); conditions: deionized water, water, Water-solubility, 37 °C
[8] = tested on: tumor cells; conditions: in vitro cell models, result in words; cited from earlier work
[9] = tested on: Hepa1-6 transplanted tumor; conditions: 30 mg/kg i.p., 14 consecutive days; cited from earlier work
[10] = tested on: HepG2 and Huh7 HCC cell transplanted tumor; conditions: HepG2 and Huh7 transplanted tumor models; cited from earlier work
[11] = Mus musculus, read-out: Suppression Rate (MDSC chemotaxis)

SMILES: C=C1C(=O)O[C@@H]2[C@@H]3[C@]4(CC[C@@]3(C)O)C[C@]4(C)CC[C@@H]12 [Compound 1]
- Dermatitis Score, ear ([1]; 0.01% ointment, 7 days, max score 12): 3.50 ± 0.22
- AD-like skin lesions on the ears ([1]; 0.01%, 0.1%, 1% ointment): significantly alleviated
- inhibition rate of ear thickness increase ([1]; 0.01% ointment): 71%
- inhibition rate of ear thickness increase ([1]; 0.1% ointment): 71%
- inhibition rate of ear thickness increase ([1]; 1% ointment): 80%
- I113 mRNA expression, ear ([2]; 0.01% ointment): 3.30 ± 0.47
- I131 mRNA expression, ear ([2]; 0.1% ointment): 1.64 ± 0.25
- I131 mRNA expression, ear ([2]; 1% ointment): 1.10 ± 0.19
- AD-like skin lesions on the backs ([3]; 0.01%, 0.1%, 1% ointment): significantly alleviated
- Dermatitis Score, back ([3]; 0.1% ointment, 7 days, max score 12): 2.50 ± 0.22
- inhibition rate of dorsal skin thickness increase ([3]; 0.01% ointment): 66%
- inhibition rate of dorsal skin thickness increase ([3]; 0.1% ointment): 72%
- inhibition rate of dorsal skin thickness increase ([3]; 1% ointment): 83%
- T cell proliferation in MDSC-T cell co-culture ([4]; 1 μM, result in words): significantly enhanced T-cell proliferation
- activation at 1 µM [4]: > 40%
- inhibition at 1 µM [5, 11]: 42.3%
- inhibition at 10 µM [5, 11]: 83.3%
- inhibition of MDSC chemotaxis compared to Arg ([5]; result in words): superior inhibition rates
- inhibition at 1 µM [6]: 35.2%
- inhibition at 10 µM [6]: 76.5%
- solubility [7]: 1140 µg/mL (≈ 4.35 mM)

SMILES: C=C1C(=O)O[C@H]2[C@H]1CCC(C)=C1CC[C@@](C)(O)[C@@H]12 [MCL, Micheliolide]
- activation at 1 µM [4]: 20 to 40%
- IC50, tumor cell growth inhibition [8]: in the micromolar range
- tumor weight inhibition rate [9]: 50%
- effective dose, intraperitoneal [10]: 25 mg/kg
